The source of these data is US12624023B2, “Sulfonylurea derivatives and uses thereof” (NodThera Limited, priority 2019, dated 2026).

Assay [1] relates to IL-1β release upon NLRP3 activation in peripheral blood mononuclear cells (PBMC). In words: PBMC IC50 determination assay (IL-1β release, LPS priming + ATP stimulation, HTRF). The note with it: PBMC from buffy coats; LPS 1 μg/ml 3 h, compound 30 min, ATP 5 mM 1 h; IL-1β by HTRF. The format is cell-based. In short, it runs like this:
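Buffy-coat PBMC were primed with LPS (1 μg/ml) for 3 h, given compound for 30 min, then stimulated with 5 mM ATP for 1 h. IL-1β released into the medium was quantified by HTRF, reading 655 and 620 nm.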

The subject of assay [2] is IL-1β release upon NLRP3 activation in human whole blood. In words: Whole blood (WB) assay (IL-1β release, LPS priming + ATP stimulation, HTRF). The format is cell-based. Particulars: heparin, diluted 9:5 with media, LPS 1 μg/ml 3 h, compound 30 min, ATP 5 mM 1 h, IL-1β by HTRF. In short, it runs like this:
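Heparinised human whole blood, diluted 9:5 in medium, was primed with LPS (1 μg/ml final) for 3 h. Compound was then added for 30 min, followed by ATP (5 mM final) for 1 h. Secreted IL-1β was measured in the media by HTRF (655/620 nm).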
A general note: Time-resolved FRET reads energy transfer from a long-lived donor to a nearby acceptor.

One may read the IC50 as the point on the concentration scale where inhibition reaches its midpoint.

Take `Cc1sc2c(c1NC(=O)NS(=O)(=O)N(c1cnn(C)c1F)C1CCN(C)CC1)CCC2` [Compound 120, 1-[(5-Fluoro-1-methyl-1H-pyrazol-4-yl)(1-methylpiperidin-4-yl)sulfamoyl]-3-{2-methyl-4H,5H,6H-cyclopenta[b]thiophen-3-yl}urea]: the IC50 in assay [1] is less than 100 nM; in assay [2], 1000 to 3000 nM.

`CC(C)c1cc(NC(=O)NS(=O)(=O)N(c2cnn(C)c2)C2CCCN(C)C2)c(C(F)(F)F)s1` (stereo not drawn) [Compound 121, 1-[(1-Methyl-1H-pyrazol-4-yl)(1-methylpiperidin-3-yl)sulfamoyl]-3-[5-(propan-2-yl)-2-(trifluoromethyl)thiophen-3-yl]urea]: the IC50 in assay [1] was in the range of 100 to 500 nM; in assay [2] it was 3000 to 10000 nM.

Take `CN1CCCC(N(c2cnn(C)c2)S(=O)(=O)NC(=O)Nc2c(C(C)(C)C)sc3c2CCC3)C1` (stereo not drawn) [Compound 122, 3-{2-Tert-butyl-4H,5H,6H-cyclopenta[b]thiophen-3-yl}-1-[(1-methyl-1H-pyrazol-4-yl)(1-methylpiperidin-3-yl)sulfamoyl]urea]: the IC50 fell in the range of 500 to 1000 nM in assay [1] and 10000 to 20000 nM in assay [2].

Consider `CC(C)c1sc(Cl)cc1NC(=O)NS(=O)(=O)N(c1cnn(C)c1)C1CCN(C)CC1` [Compound 123, 3-[5-Chloro-2-(propan-2-yl)thiophen-3-yl]-1-[(1-methyl-1H-pyrazol-4-yl)(1-methylpiperidin-4-yl)sulfamoyl]urea], for which the figures for the IC50 in assay [1] and in assay [2] were less than 100 nM and 1000 to 3000 nM, respectively.

`Cc1nsc(C(C)C)c1NC(=O)NS(=O)(=O)N(c1cnn(C)c1)C1CCCN(C)C1` (stereo not drawn) [Compound 124, 1-[(1-Methyl-1H-pyrazol-4-yl)(1-methylpiperidin-3-yl)sulfamoyl]-3-[3-methyl-5-(propan-2-yl)-1,2-thiazol-4-yl]urea]: the concentration for half-maximal inhibition (IC50) in assay [1] was greater than 10000 nM; in assay [2], greater than 20000 nM.

With `Cc1sc2c(c1NC(=O)NS(=O)(=O)N(c1cnn(C)c1)[C@H]1CCN(C)C1)CCC2` [Compound 125, 1-[(1-Methyl-1H-pyrazol-4-yl)[(3S)-1-methylpyrrolidin-3-yl]sulfamoyl]-3-{2-methyl-4H,5H,6H-cyclopenta[b]thiophen-3-yl}urea], the values for the IC50 in assay [1] and in assay [2] were less than 100 nM and less than 1000 nM, respectively.

For the molecule `Cc1sc2c(c1NC(=O)NS(=O)(=O)N(c1cnn(C)c1)[C@@H]1CCN(C)C1)CCC2` [Compound 126, 1-[(1-Methyl-1H-pyrazol-4-yl)[(3R)-1-methylpyrrolidin-3-yl]sulfamoyl]-3-{2-methyl-4H,5H,6H-cyclopenta[b]thiophen-3-yl}urea], the IC50 is less than 100 nM in assay [1] and less than 1000 nM in assay [2].

Consider `Cc1cc(NC(=O)NS(=O)(=O)N(c2cnn(C)c2)[C@H]2CCN(C)C2)c(C(C)C)s1` [Compound 127, 1-[(1-Methyl-1H-pyrazol-4-yl)[(3S)-1-methylpyrrolidin-3-yl]sulfamoyl]-3-[5-methyl-2-(propan-2-yl)thiophen-3-yl]urea], for which the IC50 in assay [1] was less than 100 nM; in assay [2] it was less than 1000 nM.

Take `CC(C)c1sc(Cl)cc1NC(=O)NS(=O)(=O)N(c1cnn(C)c1)[C@H]1CCN(C)C1` [Compound 128, 3-[5-Chloro-2-(propan-2-yl)thiophen-3-yl]-1-[(1-methyl-1H-pyrazol-4-yl)-[(3S)-1-methylpyrrolidin-3-yl]sulfamoyl]urea]: the IC50 is less than 100 nM in assay [1] and less than 1000 nM in assay [2].

Consider `CC(C)c1sc(Cl)cc1NC(=O)NS(=O)(=O)N(c1cnn(C)c1)[C@@H]1CCN(C)C1` [Compound 129, 3-[5-Chloro-2-(propan-2-yl)thiophen-3-yl]-1-[(1-methyl-1H-pyrazol-4-yl)-[(3R)-1-methylpyrrolidin-3-yl]sulfamoyl]urea], for which the IC50 in assay [1] was less than 100 nM; in assay [2] it was less than 1000 nM.

Take `Cc1cc(NC(=O)NS(=O)(=O)N(c2cnn(C)c2)[C@@H]2CCN(C)C2)c(C(C)C)s1` [Compound 130, 1-[(1-Methyl-1H-pyrazol-4-yl)[(3R)-1-methylpyrrolidin-3-yl]sulfamoyl]-3-[5-methyl-2-(propan-2-yl)thiophen-3-yl]urea]: the IC50 in assay [1] was less than 100 nM; in assay [2] it was less than 1000 nM.

For the molecule `CC(C)c1sc(C#N)cc1NC(=O)NS(=O)(=O)N(c1cnn(C)c1)C1CCCN(C)C1` (stereo not drawn) [Compound 131, 3-[5-Cyano-2-(propan-2-yl)thiophen-3-yl]-1-[(1-methyl-1H-pyrazol-4-yl)(1-methylpiperidin-3-yl)sulfamoyl]urea], the IC50 in assay [1] was 500 to 1000 nM; in assay [2], 3000 to 10000 nM.
